Patent US20240409585A1, “MACROCYCLIC IMMUNOMODULATORS” (priority 2021, published 2024)
Numbered stars: 1 amine (or outer) side, 2 acyl side, 3 side chain; on linkers, the order of the positions; unused ones are H or OH. Bridge positions count the residues as written; N and C are the ends. Square brackets hold non-standard residues; d marks the D form. Peptide text beside a SMILES is read from it. * marks the point of attachment. Bip(4'-COOH) = N[C@@H](Cc1ccc(-c2ccc(C(=O)O)cc2)cc1)C(=O)O; Bip(4'-NHAc) = CC(=O)Nc1ccc(-c2ccc(C[C@H](N)C(=O)O)cc2)cc1; X6 = O=C(C[C@H](N[*:1])C(=O)[*:2])NS(=O)(=O)c1ccccc1Cl; X7 = O=C(C[C@H](N[*:1])C(=O)[*:2])NS(=O)(=O)c1ccccc1F; Phe(3,4-Cl2) = N[C@@H](Cc1ccc(Cl)c(Cl)c1)C(=O)O; Phe(3-CF3) = N[C@@H](Cc1cccc(C(F)(F)F)c1)C(=O)O; Ala(morpholin-4-yl) = N[C@@H](CN1CCOCC1)C(=O)O; Phe(4-CONH2) = NC(=O)c1ccc(C[C@H](N)C(=O)O)cc1; Phe(4-COOH) = N[C@@H](Cc1ccc(C(=O)O)cc1)C(=O)O; Bip = N[C@@H](Cc1ccc(-c2ccccc2)cc1)C(=O)O; Phe(3-F) = N[C@@H](Cc1cccc(F)c1)C(=O)O; Phe(3-Me) = Cc1cccc(C[C@H](N)C(=O)O)c1; Abu(3S-NH2) = C[C@H](N)[C@H](N)C(=O)O; Val(3-OH) = CC(C)(O)[C@H](N)C(=O)O; Cha = N[C@@H](CC1CCCCC1)C(=O)O; Carboxymethyl = O=C(O)C*; NMeA = CN[C@@H](C)C(=O)O; Nle = CCCC[C@H](N)C(=O)O; Orn = NCCC[C@H](N)C(=O)O; Dab = NCC[C@H](N)C(=O)O

Experiments:
[1] = target: T1, PE-labeled human PD-L1-Ig binding to Jurkat cell line over-expressing human PD-1 (Jurkat-PD-1) (Homo sapiens, UniProt Q15116); assay: Jurkat-PD-1 Cell Binding High-Content Screening Assay (CBA): Method 1; details: Jurkat-PD-1 cells, PE-labeled PD-L1-Ig; μM; read-out: CBA Method 1 μM
T1 construct: expressed in transfected cells; host or cells: Jurkat

[2] = target: T1, PE-labeled human PD-L1-Ig binding to Jurkat cell line over-expressing human PD-1 (Jurkat-PD-1); assay: Jurkat-PD-1 Cell Binding High-Content Screening Assay (CBA): Method 2 (presence and absence of tween-20); details: Jurkat-PD-1 cells, PE-labeled PD-L1-Ig 20 nM; presence or absence of tween-20 not given; head μM; read-out: CBA Method 2 μM
Method in brief: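 Compounds incubated with Jurkat cells overexpressing human PD-1 for 2 h at 37° C, tested with and without tween-20 to flag aggregation. PE-labeled human PD-L1-Ig (20 nM final) added in DMEM/10% FCS; binding read by high-content imaging.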

T1 sequence (Q15116 25-288): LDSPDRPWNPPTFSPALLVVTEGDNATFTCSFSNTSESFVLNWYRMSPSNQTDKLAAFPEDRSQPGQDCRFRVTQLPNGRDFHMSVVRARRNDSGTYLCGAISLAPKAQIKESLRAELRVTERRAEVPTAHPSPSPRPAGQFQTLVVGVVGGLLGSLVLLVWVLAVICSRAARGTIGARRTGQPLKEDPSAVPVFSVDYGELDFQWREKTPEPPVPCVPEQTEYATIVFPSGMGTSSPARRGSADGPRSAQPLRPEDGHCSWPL

Row | IC50 [1] [µM] | IC50 [2] [µM] | SMILES
1 | 0.0639 | 0.0689 | Cc1cccc(C[C@@H]2NC(=O)[C@H](CC(=O)O)NC(=O)[C@H](Cc3ccc(OCC(=O)O)cc3)NC(=O)[C@H](CN3CCOCC3)NC(=O)CSC[C@@H](C(=O)N[C@@H](CCN)C(N)=O)NC(=O)[C@H](CCCN)NC(=O)[C@H](C(C)C)NC(=O)[C@H](Cc3ccc(Cl)c(Cl)c3)NC(=O)[C@H](CCN)NC(=O)[C@@H](CC(C)C)NC(=O)[C@H](C)N(C)C(=O)[C@H](CCC(N)=O)NC(=O)[C@H](Cc3ccc(-c4ccccc4)cc3)NC(=O)[C@H](Cc3ccc(C(=O)O)cc3)NC2=O)c1 [Example 5042] ({CH2CO}-[Ala(morpholin-4-yl)]Y(Carboxymethyl)D[Phe(3-Me)][Phe(4-COOH)][Bip]Q[NMeA][dL][Dab][Phe(3,4-Cl2)]V[Orn]C[Dab]-NH2; thioether N-14)
2 | 0.345 | 0.338 | CC(C)C[C@H]1NC(=O)[C@H](C)N(C)C(=O)[C@H](CCC(N)=O)NC(=O)[C@H](Cc2ccc(-c3ccccc3)cc2)NC(=O)[C@H](Cc2ccc(C(=O)O)cc2)NC(=O)[C@H](Cc2cccc(C(F)(F)F)c2)NC(=O)[C@H](CC(=O)NS(=O)(=O)c2ccccc2F)NC(=O)[C@H](Cc2ccc(C(=O)O)cc2)NC(=O)[C@H](CN2CCOCC2)NC(=O)CSC[C@@H](C(=O)N[C@@H](CCN)C(N)=O)NC(=O)[C@H](CCCN)NC(=O)[C@H](C(C)C)NC(=O)[C@H](CC2CCCCC2)NC(=O)[C@H](CCN)NC1=O [Example 5077] ({CH2CO}-[Ala(morpholin-4-yl)][Phe(4-COOH)][X7][Phe(3-CF3)][Phe(4-COOH)][Bip]Q[NMeA][dL][Dab][Cha]V[Orn]C[Dab]-NH2; thioether N-14)
3 | 0.224 | 0.332 | CC(C)C[C@H]1NC(=O)[C@H](C)N(C)C(=O)[C@H](CCC(N)=O)NC(=O)[C@H](Cc2ccc(-c3ccccc3)cc2)NC(=O)[C@H](Cc2ccc(C(=O)O)cc2)NC(=O)[C@H](Cc2cccc(C(F)(F)F)c2)NC(=O)[C@H](CC(=O)NS(=O)(=O)c2ccccc2Cl)NC(=O)[C@H](Cc2ccc(C(=O)O)cc2)NC(=O)[C@H](CN2CCOCC2)NC(=O)CSC[C@@H](C(=O)N[C@@H](CCN)C(N)=O)NC(=O)[C@H](CCCN)NC(=O)[C@H](C(C)C)NC(=O)[C@H](CC2CCCCC2)NC(=O)[C@H](CCN)NC1=O [Example 5080] ({CH2CO}-[Ala(morpholin-4-yl)][Phe(4-COOH)][X6][Phe(3-CF3)][Phe(4-COOH)][Bip]Q[NMeA][dL][Dab][Cha]V[Orn]C[Dab]-NH2; thioether N-14)
4 | 0.0136 | 0.0131 | CCCC[C@@H]1NC(=O)CSC[C@@H](C(=O)N[C@@H](CCN)C(N)=O)NC(=O)[C@H](CO)NC(=O)[C@H](C(C)(C)O)NC(=O)[C@H](CC2CCCCC2)NC(=O)[C@H](CCN)NC(=O)[C@@H](CC(C)C)NC(=O)[C@H](C)N(C)C(=O)[C@H](Cc2ccc(C(N)=O)cc2)NC(=O)[C@H](Cc2ccc(-c3ccccc3)cc2)NC(=O)[C@H](Cc2ccc(-c3ccc(NC(C)=O)cc3)cc2)NC(=O)[C@H](Cc2cccc(C)c2)NC(=O)[C@H](CC(=O)O)NC(=O)[C@H](Cc2ccc(OCC(=O)O)cc2)NC1=O [Example 5069] ({CH2CO}-[Nle]Y(Carboxymethyl)D[Phe(3-Me)][Bip(4'-NHAc)][Bip][Phe(4-CONH2)][NMeA][dL][Dab][Cha][Val(3-OH)]SC[Dab]-NH2; thioether N-14)
5 | 0.0059 | 0.005 | CC(=O)Nc1ccc(-c2ccc(C[C@@H]3NC(=O)[C@H](Cc4cccc(C(F)(F)F)c4)NC(=O)[C@H](CC(=O)O)NC(=O)[C@H](Cc4ccc(C(=O)O)cc4)NC(=O)[C@H]([C@H](C)N)NC(=O)CSC[C@@H](C(=O)N[C@@H](CCN)C(N)=O)NC(=O)[C@H](CCC(N)=O)NC(=O)[C@H](C(C)C)NC(=O)[C@H](CC4CCCCC4)NC(=O)[C@H](CCN)NC(=O)[C@@H](CC(C)C)NC(=O)[C@H](C)N(C)C(=O)[C@H](Cc4ccc(C(N)=O)cc4)NC(=O)[C@H](Cc4ccc(-c5ccccc5)cc4)NC3=O)cc2)cc1 [Example 5073] ({CH2CO}-[Abu(3S-NH2)][Phe(4-COOH)]D[Phe(3-CF3)][Bip(4'-NHAc)][Bip][Phe(4-CONH2)][NMeA][dL][Dab][Cha]VQC[Dab]-NH2; thioether N-14)
6 | 0.01 | 0.0095 | COC[C@@H]1NC(=O)CSC[C@@H](C(=O)N[C@@H](CCN)C(N)=O)NC(=O)[C@H](CCCN)NC(=O)[C@H](C(C)C)NC(=O)[C@H](CC2CCCCC2)NC(=O)[C@H](CCN)NC(=O)[C@@H](CC(C)C)NC(=O)[C@H](C)N(C)C(=O)[C@H](CCC(N)=O)NC(=O)[C@H](Cc2ccc(-c3ccccc3)cc2)NC(=O)[C@H](Cc2ccc(-c3ccc(NC(C)=O)cc3)cc2)NC(=O)[C@H](Cc2cccc(C)c2)NC(=O)[C@H](CC(=O)O)NC(=O)[C@H](Cc2ccc(OCC(=O)O)cc2)NC1=O [Example 5056] ({CH2CO}-S(Me)Y(Carboxymethyl)D[Phe(3-Me)][Bip(4'-NHAc)][Bip]Q[NMeA][dL][Dab][Cha]V[Orn]C[Dab]-NH2; thioether N-14)
7 | 0.0172 | 0.0106 | Cc1cccc(C[C@@H]2NC(=O)[C@H](CC(=O)O)NC(=O)[C@H](Cc3ccc(OCC(=O)O)cc3)NC(=O)[C@H](CCN)NC(=O)CSC[C@@H](C(=O)N[C@@H](CCN)C(N)=O)NC(=O)[C@H](CCC(N)=O)NC(=O)[C@H](C(C)C)NC(=O)[C@H](CC3CCCCC3)NC(=O)[C@H](CCN)NC(=O)[C@@H](CC(C)C)NC(=O)[C@H](C)N(C)C(=O)[C@H](Cc3ccc(C(N)=O)cc3)NC(=O)[C@H](Cc3ccc(-c4ccccc4)cc3)NC(=O)[C@H](Cc3ccc(OCC(=O)O)cc3)NC2=O)c1 [Example 5068] ({CH2CO}-[Dab]Y(Carboxymethyl)D[Phe(3-Me)]Y(Carboxymethyl)[Bip][Phe(4-CONH2)][NMeA][dL][Dab][Cha]VQC[Dab]-NH2; thioether N-14)
8 | 0.0052 | 0.0041 | CC(=O)Nc1ccc(-c2ccc(C[C@@H]3NC(=O)[C@H](Cc4cccc(C(F)(F)F)c4)NC(=O)[C@H](CC(=O)O)NC(=O)[C@H](Cc4ccc(C(=O)O)cc4)NC(=O)[C@H](CN4CCOCC4)NC(=O)CSC[C@@H](C(=O)N[C@@H](CCN)C(N)=O)NC(=O)[C@H](CCCN)NC(=O)[C@H](C(C)C)NC(=O)[C@H](CC4CCCCC4)NC(=O)[C@H](CCN)NC(=O)[C@@H](CC(C)C)NC(=O)[C@H](C)N(C)C(=O)[C@H](CCC(N)=O)NC(=O)[C@H](Cc4ccc(-c5ccccc5)cc4)NC3=O)cc2)cc1 [Example 5047] ({CH2CO}-[Ala(morpholin-4-yl)][Phe(4-COOH)]D[Phe(3-CF3)][Bip(4'-NHAc)][Bip]Q[NMeA][dL][Dab][Cha]V[Orn]C[Dab]-NH2; thioether N-14)
9 | 0.0243 | 0.0332 | CC(=O)Nc1ccc(-c2ccc(C[C@@H]3NC(=O)[C@H](Cc4cccc(C(F)(F)F)c4)NC(=O)[C@H](CC(=O)O)NC(=O)[C@H](Cc4ccc(-c5ccc(C(=O)O)cc5)cc4)NC(=O)[C@H](Cc4ccc(OCC(=O)O)cc4)NC(=O)CSC[C@@H](C(=O)N[C@@H](CCN)C(N)=O)NC(=O)[C@H](CCC(=O)O)NC(=O)[C@H](C(C)C)NC(=O)[C@H](CC4CCCCC4)NC(=O)[C@H](CCN)NC(=O)[C@@H](CC(C)C)NC(=O)[C@H](C)N(C)C(=O)[C@H](CCCN)NC(=O)[C@H](Cc4ccc(-c5ccccc5)cc4)NC3=O)cc2)cc1 [Example 5084] ({CH2CO}-Y(Carboxymethyl)[Bip(4'-COOH)]D[Phe(3-CF3)][Bip(4'-NHAc)][Bip][Orn][NMeA][dL][Dab][Cha]VEC[Dab]-NH2; thioether N-14)
10 | 0.09 | 0.07 | CC(=O)Nc1ccc(-c2ccc(C[C@@H]3NC(=O)[C@H](Cc4cccc(C(F)(F)F)c4)NC(=O)[C@H](CC(=O)O)NC(=O)[C@H](Cc4ccc(-c5ccc(C(=O)O)cc5)cc4)NC(=O)[C@H](CN4CCOCC4)NC(=O)CSC[C@@H](C(=O)N[C@@H](CCN)C(N)=O)NC(=O)[C@H](CCN)NC(=O)[C@H](C(C)C)NC(=O)[C@H](CC4CCCCC4)NC(=O)[C@H](CCN)NC(=O)[C@@H](CC(C)C)NC(=O)[C@H](C)N(C)C(=O)[C@H](CCCN)NC(=O)[C@H](Cc4ccc(-c5ccccc5)cc4)NC3=O)cc2)cc1 [Example 5091] ({CH2CO}-[Ala(morpholin-4-yl)][Bip(4'-COOH)]D[Phe(3-CF3)][Bip(4'-NHAc)][Bip][Orn][NMeA][dL][Dab][Cha]V[Dab]C[Dab]-NH2; thioether N-14)
11 | 0.0081 | 0.0084 | CC(=O)Nc1ccc(-c2ccc(C[C@@H]3NC(=O)[C@H](Cc4cccc(C)c4)NC(=O)[C@H](CC(=O)O)NC(=O)[C@H](Cc4ccc(C(=O)O)cc4)NC(=O)[C@H]([C@H](C)N)NC(=O)CSC[C@@H](C(=O)N[C@@H](CCN)C(N)=O)NC(=O)[C@H](CCCN)NC(=O)[C@H](C(C)C)NC(=O)[C@H](Cc4cccc(F)c4)NC(=O)[C@H](CCN)NC(=O)[C@@H](CC(C)C)NC(=O)[C@H](C)N(C)C(=O)[C@H](CCC(N)=O)NC(=O)[C@H](Cc4ccc(-c5ccccc5)cc4)NC3=O)cc2)cc1 [Example 5052] ({CH2CO}-[Abu(3S-NH2)][Phe(4-COOH)]D[Phe(3-Me)][Bip(4'-NHAc)][Bip]Q[NMeA][dL][Dab][Phe(3-F)]V[Orn]C[Dab]-NH2; thioether N-14)
12 | 0.0385 | 0.0321 | CC(=O)Nc1ccc(-c2ccc(C[C@@H]3NC(=O)[C@H](Cc4cccc(C)c4)NC(=O)[C@H](CC(=O)O)NC(=O)[C@H](Cc4ccc(C(=O)O)cc4)NC(=O)[C@H](CC(C)C)NC(=O)CSC[C@@H](C(=O)N[C@@H](CCN)C(N)=O)NC(=O)[C@H](CCCN)NC(=O)[C@H](C(C)C)NC(=O)[C@H](Cc4cccc(F)c4)NC(=O)[C@H](CCN)NC(=O)[C@@H](CC(C)C)NC(=O)[C@H](C)N(C)C(=O)[C@H](CCC(N)=O)NC(=O)[C@H](Cc4ccc(-c5ccccc5)cc4)NC3=O)cc2)cc1 [Example 5055] ({CH2CO}-L[Phe(4-COOH)]D[Phe(3-Me)][Bip(4'-NHAc)][Bip]Q[NMeA][dL][Dab][Phe(3-F)]V[Orn]C[Dab]-NH2; thioether N-14)
